Data on 14 compounds can be found in PubChem BioAssay (NCI).

Some test systems named below: SF-539 CNS; RXF 393 renal; CAKI-1 renal; SK-OV-3 ovarian; SR leukemia; HCT-15 colon; HCC-2998 colon; HOP-62 NSCLC; UO-31 renal.
Test in all cases: DTP human tumour cell line panel, 48 h

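Interpolation was linear, between the two tested concentrations surrounding the appropriate level; five concentrations were tested over 48 hours in 96-well plates. Abbreviation: GI50, concentration required for 50% inhibition of growth. TGI marks complete inhibition of growth.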 A value given as a limit tells only on which side of the number the result lay.

Turning to `Nc1ncnc2c1N=CN(Oc1ccccc1)N2`, the TGI in the assay on SF-539 CNS, with RXF 393 renal, with CAKI-1 renal, in the assay with SK-OV-3 ovarian, with SR leukemia and with HCT-15 colon was above 100 µM throughout.
Take `O=C(Cc1ccccc1)N/N=C(/c1nc2ccc([N+](=O)[O-])cc2[nH]c1=O)C(O)c1ccco1` (stereo not drawn): the TGI in the assay on SF-539 CNS, with CAKI-1 renal, in the assay with SK-OV-3 ovarian, in the assay with HCC-2998 colon, with SR leukemia and in the assay on HCT-15 colon was above 100 µM in each case. Further, the TGI with HOP-62 NSCLC and with UO-31 renal was above 100 µM each time.
Take `C=CCC(O)c1cc(OC)ccc1OC` (stereo not drawn): the TGI with SF-539 CNS, with RXF 393 renal, with CAKI-1 renal, in the assay with SK-OV-3 ovarian, in the assay with HCC-2998 colon and in the assay on HCT-15 colon was above 100 µM throughout. Besides, the TGI in the assay with HOP-62 NSCLC and in the assay with UO-31 renal was above 100 µM in each case.
Consider `CCOC(=O)C1=C(Nc2cccc3ccccc23)OCC1=O`, for which the TGI with SF-539 CNS, in the assay with CAKI-1 renal, in the assay with SK-OV-3 ovarian, in the assay on HCC-2998 colon, in the assay on SR leukemia and with HOP-62 NSCLC was above 100 µM each time. Further, the total growth inhibition concentration (TGI) in the assay with UO-31 renal was above 100 µM.
For `CC(C)=CC1(C)/C(=N\O)C(C)(CC(C)C)C(=O)N1O` (stereo not drawn), the TGI with SF-539 CNS, in the assay with RXF 393 renal, with CAKI-1 renal, in the assay with SK-OV-3 ovarian, in the assay with HCC-2998 colon and in the assay with SR leukemia was above 100 µM throughout. For the same compound, the total growth inhibition concentration (TGI) in the assay on HCT-15 colon, with HOP-62 NSCLC and with UO-31 renal was above 100 µM in each case.
For the compound `CC1=C(C(=O)NCc2ccccc2)C(c2ccc(N(C)C)cc2)C(C(=O)NCc2ccccc2)=C(C)N1`, the TGI was above 100 µM in the assay on SF-539 CNS; 80.3 µM with RXF 393 renal; above 100 µM with CAKI-1 renal; above 100 µM in the assay on SK-OV-3 ovarian; above 100 µM with HCC-2998 colon; above 100 µM in the assay with HOP-62 NSCLC. The same compound showed a concentration for total growth inhibition (TGI) in the assay with UO-31 renal above 100 µM.
As to `CN(C)C(=S)/N=C(\N)N(C)C`, the TGI in the assay with SF-539 CNS, with RXF 393 renal, in the assay on CAKI-1 renal, with SK-OV-3 ovarian, with HCC-2998 colon and in the assay on SR leukemia was above 100 µM each time. Moreover, the TGI in the assay with HCT-15 colon, with HOP-62 NSCLC and with UO-31 renal was above 100 µM throughout.
In the case of `CC1=CC[C@@H]2C(=O)C=CC=C[C@H]12.[C-]#[O+].[C-]#[O+].[C-]#[O+].[Fe]`, the GI50 in the assay with SF-539 CNS, with RXF 393 renal, with SK-OV-3 ovarian, in the assay with HCC-2998 colon, in the assay with SR leukemia and in the assay with HCT-15 colon was above 100 µM throughout. In addition, the GI50 in the assay with HOP-62 NSCLC and in the assay on UO-31 renal was above 100 µM each time. The TGI with SF-539 CNS, in the assay with RXF 393 renal, in the assay on SK-OV-3 ovarian, in the assay with HCC-2998 colon, with SR leukemia and with HCT-15 colon was above 100 µM each time. Besides, the TGI in the assay on HOP-62 NSCLC and in the assay with UO-31 renal was above 100 µM in each case.
As for `Cc1cccc(/C=N/N=C(\N)NO)n1`, the concentration for total growth inhibition (TGI) in the assay on SF-539 CNS, in the assay on RXF 393 renal, in the assay on CAKI-1 renal, with SK-OV-3 ovarian, in the assay with HCC-2998 colon and in the assay with SR leukemia was above 100 µM throughout. The compound further registered a total growth inhibition concentration (TGI) with HOP-62 NSCLC above 100 µM.
On to `CC(C)(C)CC(C)(C)c1cc2c(O)c(c1)Cc1cc(C(C)(C)CC(C)(C)C)cc(c1O)Cc1cc(C(C)(C)CC(C)(C)C)cc(c1O)Cc1cc(C(C)(C)CC(C)(C)C)cc(c1O)Cc1cc(C(C)(C)CC(C)(C)C)cc(c1O)Cc1cc(C(C)(C)CC(C)(C)C)cc(c1O)Cc1cc(C(C)(C)CC(C)(C)C)cc(c1O)Cc1cc(C(C)(C)CC(C)(C)C)cc(c1O)C2`, for which the TGI in the assay with SF-539 CNS, in the assay on RXF 393 renal, with HCC-2998 colon, in the assay with HCT-15 colon, in the assay on HOP-62 NSCLC and in the assay on UO-31 renal was above 100 µM throughout.
In the case of `Cc1c(-c2cc(-c3ccccc3)n[nH]c2=O)c2ccccc2n1C`, the TGI in the assay with SF-539 CNS, in the assay on RXF 393 renal, in the assay on CAKI-1 renal, in the assay with SK-OV-3 ovarian, in the assay on HCC-2998 colon and in the assay on SR leukemia was above 100 µM each time. Also, the TGI in the assay on HCT-15 colon, with HOP-62 NSCLC and in the assay on UO-31 renal was above 100 µM each time.
As for `CNC(=O)NCCCCC(NC(=O)OCc1ccccc1)C(=O)OCc1ccccc1` (stereo not drawn), the TGI in the assay on SF-539 CNS was 38.5 µM; with RXF 393 renal, 33.9 µM; in the assay on CAKI-1 renal, 48.6 µM; with SK-OV-3 ovarian it was above 100 µM; with HCC-2998 colon it was 36.9 µM; with SR leukemia, 61.4 µM. Moreover, the TGI in the assay with HCT-15 colon was above 100 µM; with HOP-62 NSCLC, 29.1 µM; in the assay on UO-31 renal, 32.7 µM.
Regarding `O=C(/C=C/c1ccco1)N1CCN(Cc2ccccc2)CC1`, the TGI in the assay with SF-539 CNS, in the assay with CAKI-1 renal, in the assay on SK-OV-3 ovarian, in the assay on HCC-2998 colon, with SR leukemia and with HCT-15 colon was above 100 µM in each case. In addition, the TGI in the assay with HOP-62 NSCLC and in the assay with UO-31 renal was above 100 µM throughout.
`C=CC(=O)OCCCS(=O)(=O)[O-].C=CC(=O)OCCCS(=O)(=O)[O-].NC1CCCCC1N.[Pt+4]`: the GI50 in the assay with SF-539 CNS, in the assay on RXF 393 renal, in the assay with CAKI-1 renal, in the assay on SK-OV-3 ovarian, in the assay on HCC-2998 colon and in the assay on HCT-15 colon was above 25 µM throughout. Besides, in the assay on UO-31 renal, the GI50 was above 25 µM. For the same compound, the total growth inhibition concentration (TGI) with SF-539 CNS, with RXF 393 renal, in the assay with CAKI-1 renal, in the assay on SK-OV-3 ovarian, with HCC-2998 colon and with HCT-15 colon was above 25 µM throughout. In the assay on UO-31 renal, this compound gave a TGI above 25 µM.

A word on the TGI: it is the concentration giving total growth inhibition. Low readings indicate more potent growth arrest, high ones less potent growth arrest. The GI50 is the concentration giving 50% growth inhibition.
